{
  "source": "patent US20230158049A1",
  "about": "“COMPOSITIONS AND METHODS FOR TREATING VIRUSES” (University of Virginia Patent Foundation, priority 2020, published 2023)",
  "tested_on": "SARS-CoV-2",
  "conditions": "[…]",
  "data": [
    {"compound": "C[C@H]1c2cccc(O)c2C(=O)C2=C(O)[C@]3(O)C(=O)C(C(N)=O)=C(O)[C@@H](N(C)C)[C@@H]3[C@@H](O)[C@@H]21", "note": "[doxycycline]", "values": [
      {"measurement": "time to symptom improvement", "setting": "doxycycline 100 mg twice daily with osimertinib", "value": "≤ 1", "unit": "week"},
      {"measurement": "time to improvement in all symptoms", "setting": "doxycycline 200 mg then 100 mg daily for 5 days", "value": "≤ 5", "unit": "days"}
    ]}
  ]
}
